Legend:
[1] = molecular target: T1, EGFR (Homo sapiens, UniProt P00533); assay: EGFR ELISA assay (in vitro kinase activity, A431 cell lysate); assay type: biochemical; parameters: concentration or dose not given beside the values
T1 construct: Add 7 ug A431 cell lysate per well (EGFR source); endogenous in cells; host or cells: A431 cells (lysate)
Procedure: To provide a consistent method for measuring the in vitro kinase activity of the EGFR in an Enzyme-linked immunosorbent assay (Elisa).
Scope. The following protocol describes the procedures used to analyze protein tyrosine kinase activity on the EGFR in an Elisa. The procedure also describes the protocol for the initial screening of drugs for inhibition or activation of protein tyrosine kinase activity.
1. Coat Corning 96-well elisa plates with 0.5 ug per well 05-101 antibody. • Bring final volume to 100 ul per well with PBS. • Coat plates overnight at […].
2. Remove unbound 05-101 from wells by inverting plate to remove liquid. • Wash 1× with distilled H2O by filling wells • Pat the plate on a paper towel to remove excess liquid.
3. Block plates with 5% milk in PBS. • 150 ul per well. • Incubate plate 30 minutes while shaking on a microtiter plate shaker.
4. Wash plate 3× with dionized water, then once with TBST
5. Add 7 ug A431 cell lysate per well (EGFR source). • Add PBS to final volume of 100 ul per well • Incubate 30 minutes while shaking.
6. Wash as described in step 4.
8. […] It is best to add the ATP/MnCl2 with an 12 channel pipettor 1 row at a time leaving 20 seconds between each row so that the reaction may be stopped with EDTA exactly 5 minutes later (this depends on the number of plates being phosphorylated in one batch). Shake between each addition.
9. After 5 minutes, to stop reaction, add 16.5 ul of 200 mM EDTA pH 8.0 for 20 mM final in well, shaking continuously between each addition. This is done using the same timing method as above. After last row has received EDTA, shake plate an additional minute.
10. Wash 4× with deionized water, twice with TBST.
11. Add rabbit polyclonal anti-phosphotyrosine serum. • Dilute 1:3000 in TBST. • Add 100 ul per well. • Incubate 30–45 minutes while shaking.
12. Wash as described above in step 4.
13. Add BioSource anti-rabbit peroxidase conjugate antibody. • Dilute 1:2000 in TBST. • Add 100 ul per well. • Incubate 30 minutes while shaking.
14. Wash as described in step 4.
15. Add 100 ul of ABTS/H2O2 solution to well. • Incubate 5 to 10 minutes while shaking. • Remove bubbles
16. If necessary stop reaction with the addition of 100 ul of 0.2M HCl per well
17. Read assay on Dynatech MR7000 elisa reader. • Test Filter: 410 nM • Reference Filter: 630 nM

[2] = system: human MET; assay: MET biochemical kinase assay; parameters: concentration or dose not given beside the values
Summary of the method: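 MET captured from cell lysates onto plates coated with goat anti-rabbit Fc plus rabbit polyclonal anti-MET cytoplasmic-domain antibody; after washing, compounds added with kinase buffer containing ATP and divalent metal ions. Receptor tyrosine phosphorylation detected by HRP-conjugated anti-phosphotyrosine antibody, TMB colorimetric read-out.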

[3] = molecular target: T2, FLK-1 receptor (Mus musculus, UniProt P35918); assay: FLK-1 ELISA (catalytic activity of the FLK-1 receptor in FLK-1/NIH3T3 cells); assay type: cell-based; parameters: Flk Kinase % Inhibition: concentration or dose not given beside the values
T2 construct: expressed in transfected cells; host or cells: NIH3T3 C7#3 (FLK-1/NIH3T3)
T2 sequence (P35918 20-1345): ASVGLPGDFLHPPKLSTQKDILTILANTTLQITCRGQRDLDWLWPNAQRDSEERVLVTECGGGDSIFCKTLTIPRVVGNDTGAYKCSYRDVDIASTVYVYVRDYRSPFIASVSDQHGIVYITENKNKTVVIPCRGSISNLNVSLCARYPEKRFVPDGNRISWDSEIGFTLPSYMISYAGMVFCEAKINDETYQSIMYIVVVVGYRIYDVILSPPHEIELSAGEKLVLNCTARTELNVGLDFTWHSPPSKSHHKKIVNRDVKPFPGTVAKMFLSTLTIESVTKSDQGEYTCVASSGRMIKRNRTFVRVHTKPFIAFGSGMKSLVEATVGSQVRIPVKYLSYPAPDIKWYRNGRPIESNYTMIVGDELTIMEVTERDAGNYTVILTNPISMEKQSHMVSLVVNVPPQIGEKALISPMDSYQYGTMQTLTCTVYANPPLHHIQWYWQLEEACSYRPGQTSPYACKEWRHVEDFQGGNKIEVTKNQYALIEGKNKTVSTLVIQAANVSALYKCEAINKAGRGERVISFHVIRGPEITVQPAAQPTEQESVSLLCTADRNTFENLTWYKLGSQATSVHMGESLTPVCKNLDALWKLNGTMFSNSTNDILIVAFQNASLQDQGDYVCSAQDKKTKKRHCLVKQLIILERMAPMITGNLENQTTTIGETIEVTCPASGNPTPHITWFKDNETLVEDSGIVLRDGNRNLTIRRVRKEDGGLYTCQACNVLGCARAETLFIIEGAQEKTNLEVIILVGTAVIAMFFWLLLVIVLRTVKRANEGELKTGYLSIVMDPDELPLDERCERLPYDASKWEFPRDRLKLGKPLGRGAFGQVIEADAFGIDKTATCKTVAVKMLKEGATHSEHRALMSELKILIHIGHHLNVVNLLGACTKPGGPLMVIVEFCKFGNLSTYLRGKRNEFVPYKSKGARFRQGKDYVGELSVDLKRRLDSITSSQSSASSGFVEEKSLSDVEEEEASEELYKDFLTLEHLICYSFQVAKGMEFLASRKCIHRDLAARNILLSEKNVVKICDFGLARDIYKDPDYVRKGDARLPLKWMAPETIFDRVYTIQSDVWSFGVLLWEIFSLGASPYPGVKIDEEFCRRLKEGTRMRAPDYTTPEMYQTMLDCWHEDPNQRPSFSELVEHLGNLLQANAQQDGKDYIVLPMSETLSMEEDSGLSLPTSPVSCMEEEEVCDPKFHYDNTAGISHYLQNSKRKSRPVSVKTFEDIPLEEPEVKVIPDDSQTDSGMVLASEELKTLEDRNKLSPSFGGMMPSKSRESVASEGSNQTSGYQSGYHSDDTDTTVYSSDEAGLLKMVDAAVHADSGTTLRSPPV

[4] = molecular target: platelet derived growth factor protein kinase (PDGFR) (Homo sapiens, UniProt P09619); assay: PDGF-R ELISA; assay type: cell-based; parameters: concentration or dose not given beside the values
platelet derived growth factor protein kinase (PDGFR), sequence (P09619 33-1106): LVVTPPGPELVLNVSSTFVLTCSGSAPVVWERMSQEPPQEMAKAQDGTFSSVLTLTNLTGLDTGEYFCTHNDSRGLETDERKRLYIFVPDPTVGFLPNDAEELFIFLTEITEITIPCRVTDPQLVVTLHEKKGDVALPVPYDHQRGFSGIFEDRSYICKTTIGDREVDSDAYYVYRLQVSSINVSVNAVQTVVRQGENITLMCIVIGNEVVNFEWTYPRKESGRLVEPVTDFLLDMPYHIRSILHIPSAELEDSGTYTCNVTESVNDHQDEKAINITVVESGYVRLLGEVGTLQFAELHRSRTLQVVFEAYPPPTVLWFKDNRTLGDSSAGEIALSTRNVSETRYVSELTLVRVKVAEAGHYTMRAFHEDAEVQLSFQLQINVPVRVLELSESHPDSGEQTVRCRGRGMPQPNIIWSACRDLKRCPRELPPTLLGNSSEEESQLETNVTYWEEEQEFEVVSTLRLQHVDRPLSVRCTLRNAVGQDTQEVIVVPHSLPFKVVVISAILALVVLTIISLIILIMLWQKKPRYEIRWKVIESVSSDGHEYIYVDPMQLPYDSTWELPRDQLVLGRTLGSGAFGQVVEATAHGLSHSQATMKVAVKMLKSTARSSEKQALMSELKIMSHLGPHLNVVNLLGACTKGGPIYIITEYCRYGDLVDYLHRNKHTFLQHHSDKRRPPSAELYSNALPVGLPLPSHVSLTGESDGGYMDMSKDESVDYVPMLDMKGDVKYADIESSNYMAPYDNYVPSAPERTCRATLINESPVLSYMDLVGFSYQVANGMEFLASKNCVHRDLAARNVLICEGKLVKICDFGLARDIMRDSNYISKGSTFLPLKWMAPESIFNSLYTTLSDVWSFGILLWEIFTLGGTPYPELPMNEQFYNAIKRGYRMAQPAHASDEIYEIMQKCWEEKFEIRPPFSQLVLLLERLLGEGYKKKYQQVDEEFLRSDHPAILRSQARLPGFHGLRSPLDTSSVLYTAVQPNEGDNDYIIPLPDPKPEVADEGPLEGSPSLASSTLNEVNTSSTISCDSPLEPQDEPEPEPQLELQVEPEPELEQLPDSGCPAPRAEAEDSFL
From the text: A PDGF-R ELISA is described in International Patent Publication No. WO 96/40116, published Dec. 19, 1996 by Tang et al.

T1 sequence (P00533 25-1210): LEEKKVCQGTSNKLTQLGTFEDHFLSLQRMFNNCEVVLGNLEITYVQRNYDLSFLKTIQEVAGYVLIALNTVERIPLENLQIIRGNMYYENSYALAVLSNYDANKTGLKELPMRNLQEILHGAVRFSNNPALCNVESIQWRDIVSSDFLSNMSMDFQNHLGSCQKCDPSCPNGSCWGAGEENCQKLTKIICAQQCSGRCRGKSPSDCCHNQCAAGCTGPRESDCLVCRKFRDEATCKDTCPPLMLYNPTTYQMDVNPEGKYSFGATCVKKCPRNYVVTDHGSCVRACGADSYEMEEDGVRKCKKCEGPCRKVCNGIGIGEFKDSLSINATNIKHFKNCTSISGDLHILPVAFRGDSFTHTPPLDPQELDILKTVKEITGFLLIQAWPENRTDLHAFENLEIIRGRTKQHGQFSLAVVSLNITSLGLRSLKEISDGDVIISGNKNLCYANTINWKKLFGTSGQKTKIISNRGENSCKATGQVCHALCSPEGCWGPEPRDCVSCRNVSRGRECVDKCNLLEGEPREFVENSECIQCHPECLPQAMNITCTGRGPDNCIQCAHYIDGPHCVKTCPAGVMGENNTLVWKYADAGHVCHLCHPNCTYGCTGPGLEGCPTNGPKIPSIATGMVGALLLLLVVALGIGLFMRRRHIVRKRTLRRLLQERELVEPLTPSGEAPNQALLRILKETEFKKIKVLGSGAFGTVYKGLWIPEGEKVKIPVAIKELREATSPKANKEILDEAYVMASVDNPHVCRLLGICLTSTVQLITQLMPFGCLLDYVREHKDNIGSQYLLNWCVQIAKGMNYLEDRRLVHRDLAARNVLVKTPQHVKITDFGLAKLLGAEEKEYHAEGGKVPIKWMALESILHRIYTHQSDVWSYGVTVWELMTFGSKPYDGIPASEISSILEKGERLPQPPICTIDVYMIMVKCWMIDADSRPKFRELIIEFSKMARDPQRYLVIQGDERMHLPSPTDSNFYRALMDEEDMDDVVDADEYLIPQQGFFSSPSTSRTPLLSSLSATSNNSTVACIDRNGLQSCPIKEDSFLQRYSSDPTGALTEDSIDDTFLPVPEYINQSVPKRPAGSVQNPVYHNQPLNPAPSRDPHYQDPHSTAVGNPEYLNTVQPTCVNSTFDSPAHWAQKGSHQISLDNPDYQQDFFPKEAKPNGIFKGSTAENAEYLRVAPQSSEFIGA

Question: Which results are given for `O=C1Nc2ccc(I)cc2C1=Cc1cc2c3c(c1O)CCCN3CCC2` [10724/B05]?
Answer: Biochem EGFR % Inhibition [1]: 21.2%; Met Kinase % Inhibition [2]: 45.6%; Flk Kinase % Inhibition [3]: −2.2%; PDGF Kinase % Inhibition [4]: 12.6%
